Where a name gives a salt, the structure may show the parent alone.
Columns and labels:
[1] = stability towards acids and other agents; type: physicochemical
[2] = system: systolic blood pressure of spontaneously hypertonic rats; experiment: systolic blood pressure of spontaneously hypertonic rats after oral administration; type: in vivo, rat; settings: 2 h, tetrahydrocorynantheine
Excerpt: (§1) The blood pressure-lowering action of the compound THCN according to the present invention and of DHCN was investigated on spontaneously hypertonic rats after oral administration and compared with that of ajmalicine. The method thereby used for the measurement of the systolic blood pressure and of the heart rate on rats is described in Arzneimittel-Forschung, 18, 1285-1287/1968. Before commencement of the experiments, the animals were familiarised with the measurement procedure.
(§2) In a first series of experiments, the systolic blood pressure and the heart rate were investigated 2 hours after the oral administration of the test substances in the form of their hydrochlorides. The substances were suspended in 0.2% agar and administered in a volume of 10 ml./kg. It follows therefrom that all three substances lower the blood pressure in a dosage-dependent manner.

[3] = system: systolic blood pressure of spontaneously hypertonic rats; experiment: regression analysis of the dosage-activity relationship (blood pressure lowering); type: in vivo, rat; settings: compared with DHCN and ajmalicine
Excerpt: as §1, §2
The calculation of the regression lines gives, in all three cases, a statistically significant correlation between dosage and degree of blood pressure lowering (cf. the following Table 4). For ajmalicine, in the case of a dosage of 56 mg./kg., the lowering reached a maximum of about 18%, which could not be exceeded with dosages of up to 100 mg./kg.

[4] = system: mice; experiment: acute toxicity, LD50 (Litchfield and Wilcoxon) on mice; type: in vivo; settings: i.v., i.p. and oral LD50, mice
Excerpt: (§3) The toxicity of the compounds according to the present invention can be seen from the LD50 values given in the following Table 8 for intravenous, intraperitoneal and oral administration.

[5] = as above; type: in vivo; settings: mouse, in vivo, mice
Excerpt: as §3

[6] = system: systolic blood pressure of spontaneously hypertonic rats; experiment: chronological course of blood pressure decrease in spontaneously hypertonic rats; type: in vivo, rat
Excerpt: as §1
(§4) In a further series of experiments, the chronological course of the blood pressure lowering was investigated. For this purpose, spontaneously hypertonic rats were treated with 10 mg./kg. DHCN and with 5 or 10 mg./kg. THCN per os and in each case 6 or 12 animals of the treated group were measured at definite times after the treatment.

[7] = system: aconitine-induced arrythmias; experiment: protection against aconitine-induced arrhythmias in urethane-narcotised rats, i.v.; type: in vivo; settings: 2 to 5 mg/kg (THCN)
Excerpt: (§5) The antiarrhythmic effectiveness of DHCN and THCN was investigated on mice and rats.

[8] = system: stereotypy brought about by apomorphine; experiment: potentiation of apomorphine stereotypy in mice; type: in vivo; settings: oral, 10 to 20 mg/kg
[9] = system: heart rate of spontaneously hypertonic rats; experiment: chronological course of heart rate of spontaneously hypertonic rats; type: in vivo, rat; set-up: heart rate at time t: unit not given here
Excerpt: as §1, §4

[10] = system: CHCl3 arrhythmia; experiment: inhibition of CHCl3 arrhythmia on mice, i.p.; type: in vivo
Excerpt: as §5

[11] = system: mice; experiment: sedating action on mice after oral administration; type: in vivo; settings: 5 to 20 mg/kg, dosage-dependent
[12] = system: "head twitch" syndrome caused by 5-hydroxytryptophane; experiment: inhibition of "head twitch" syndrome caused by 5-hydroxytryptophane on mice; type: in vivo; settings: concluded from head twitch test
[13] = system: heart rate of spontaneously hypertonic rats; experiment: heart rate of spontaneously hypertonic rats after oral administration; type: in vivo, rat; settings: 2 h, tetrahydrocorynantheine
Excerpt: as §1, §2

[14] = system: mice; experiment: body temperature-lowering action on mice after oral administration; type: in vivo; settings: 5 to 20 mg/kg, dosage-dependent
[15] = hygroscopicity of crystals; type: physicochemical; settings: crystals dried at 110° C. for 8 hours at oil pump vacuum
Experimental: For analysis, the product is again recrystallised from methanol by the addition of diethyl ether. […] 187° C. (decomp. from 158° C., subl. of the base); [α]D^20 =-26° (c=2 in methanol).

With `CC[C@H]1CN2CCc3c([nH]c4ccccc34)[C@@H]2C[C@@H]1C(COC)C(=O)OC` (stereo partly drawn) [THCN, tetrahydrocorynantheine] the “stability compared with dihydrocorynantheine (in words)” value [1] was “substantially more stable than dihydrocorynantheine”, the “stability towards acids and other agents (in words)” value [1] was “astonishingly stable towards acids and other agents” and the “systolic blood pressure, subsequent value” ([2]; 5 mg/kg p.o.) was 178 ± 4 mm Hg. For the same compound, the “systolic blood pressure, Δ” value ([2]; 5 mg/kg p.o.) was -15 ± 3 mm Hg, the “systolic blood pressure, Δ %” value ([2]; 5 mg/kg p.o.) was -7.7 ± 1.8% and the “systolic blood pressure, subsequent value” ([2]; 10 mg/kg p.o.) was 168 ± 5 mm Hg. The “systolic blood pressure, Δ” value ([2]; 10 mg/kg p.o.) was -28 ± 6 mm Hg, the “systolic blood pressure, Δ %” value ([2]; 10 mg/kg p.o.) was -14.3 ± 4.7% and the “systolic blood pressure, subsequent value” ([2]; 18 mg/kg p.o.) was 165 ± 13 mm Hg. For the same compound, the “systolic blood pressure, Δ” value ([2]; 18 mg/kg p.o.) was -33 ± 11 mm Hg, the “systolic blood pressure, Δ %” value ([2]; 18 mg/kg p.o.) was -16.5 ± 5.8% and the “systolic blood pressure, subsequent value” ([2]; 30 mg/kg p.o.) was 146 ± 5 mm Hg. For the same compound, the “systolic blood pressure, Δ” value ([2]; 30 mg/kg p.o.) was -43 ± 5 mm Hg, the “systolic blood pressure, Δ %” value ([2]; 30 mg/kg p.o.) was -21.9 ± 3.9% and the “systolic blood pressure, subsequent value” ([2]; 40 mg/kg p.o.) was 132 ± 9 mm Hg. For the same compound, the “systolic blood pressure, Δ” value ([2]; 40 mg/kg p.o.) was -74 ± 10 mm Hg, the “systolic blood pressure, Δ %” value ([2]; 40 mg/kg p.o.) was -35.7 ± 4.7% and the “dosage activity curve (in words)” value [3] was “steeper”. For the same compound, the “strength of action (in words)” value ([3]; higher dosages) was “stronger in higher dosages”, the “toxicities compared (in words)” value [4] was “almost the same” and the LD50 ([5]; ip) was 133 mg/kg. For the same compound, the LD50 ([5]; iv) was 14.1 mg/kg, the LD50 ([5]; po) was 283 mg/kg and the “percentage decrease of blood pressure” value ([6]; 5 mg/kg p.o., 10 min.) was 11.1%. For the same compound, the “percentage decrease of blood pressure” value ([6]; 5 mg/kg p.o., 20 min.) was 13.8%, the “percentage decrease of blood pressure” value ([6]; 5 mg/kg p.o., 40 min.) was 12.8% and the “percentage decrease of blood pressure” value ([6]; 5 mg/kg p.o., 80 min.) was 13.8%. For the same compound, the “percentage decrease of blood pressure” value ([6]; 5 mg/kg p.o., 2 h.) was 8.1%, the “percentage decrease of blood pressure” value ([6]; 5 mg/kg p.o., 4 h.) was -0.2% and the “percentage decrease of blood pressure” value ([6]; 5 mg/kg p.o., 6 h.) was 4.0%. The “percentage decrease of blood pressure” value ([6]; 10 mg/kg p.o., 10 min.) was 13.5%, the “percentage decrease of blood pressure” value ([6]; 10 mg/kg p.o., 20 min.) was 29.3% and the “percentage decrease of blood pressure” value ([6]; 10 mg/kg p.o., 40 min.) was 27.8%. For the same compound, the “percentage decrease of blood pressure” value ([6]; 10 mg/kg p.o., 80 min.) was 23.0%, the “percentage decrease of blood pressure” value ([6]; 10 mg/kg p.o., 2 h.) was 14.4% and the “percentage decrease of blood pressure” value ([6]; 10 mg/kg p.o., 4 h.) was 14.0%. The “percentage decrease of blood pressure” value ([6]; 10 mg/kg p.o., 6 h.) was 15.9%, the “blood pressure lowering action compared (in words)” value ([6]; DHCN 10 mg/kg vs THCN 5 mg/kg p.o.) was “the same action” and the “time of maximum blood pressure lowering” value ([6]; DHCN 10 mg/kg, THCN 5 mg/kg p.o.) was “about 40 minutes”. For the same compound, the “blood pressure after the maximum (in words)” value ([6]; DHCN 10 mg/kg, THCN 5 mg/kg p.o., after about 40 minutes) was “the blood pressure again increases to the initial value”, the “blood pressure lowering action (in words)” value ([6]; THCN 10 mg/kg p.o.) was “a stronger action” and the “time of maximum blood pressure lowering” value ([6]; THCN 10 mg/kg p.o.) was 20 min. For the same compound, the “maximum blood pressure lowering” value ([6]; THCN 10 mg/kg p.o., 20 minutes after administration) was 30%, the “blood pressure after 6 hours (in words)” value ([6]; THCN 10 mg/kg p.o., 6 hours) was “still distinctly below the initial value” and the “blood pressure-lowering action compared with ajmalicine (in words)” value ([6]; oral administration) was “clearly stronger and longer-lasting blood pressure-lowering action”. The “antiarrhythmic effectiveness, aconitine-induced arrythmias (in words)” value [7] was “protects against aconitine-induced arrythmias”, the “apomorphine stereotypy (in words)” value [8] was “potentiated the stereotypy” and the “central dopaminergic-stimulating property (in words)” value [8] was “central dopaminergic-stimulating property”. For the same compound, the “heart rate at time t” value ([9]; 5 mg/kg p.o., 10 min.) was 504, the “heart rate at time t” value ([9]; 5 mg/kg p.o., 20 min.) was 492 and the “heart rate at time t” value ([9]; 5 mg/kg p.o., 40 min.) was 499. The “heart rate at time t” value ([9]; 5 mg/kg p.o., 80 min.) was 503, the “heart rate at time t” value ([9]; 5 mg/kg p.o., 2 h.) was 508 and the “heart rate at time t” value ([9]; 5 mg/kg p.o., 4 h.) was 502. The “heart rate at time t” value ([9]; 5 mg/kg p.o., 6 h.) was 489, the “heart rate at time t” value ([9]; 10 mg/kg p.o., 10 min.) was 519 and the “heart rate at time t” value ([9]; 10 mg/kg p.o., 20 min.) was 518. For the same compound, the “heart rate at time t” value ([9]; 10 mg/kg p.o., 40 min.) was 499, the “heart rate at time t” value ([9]; 10 mg/kg p.o., 80 min.) was 520 and the “heart rate at time t” value ([9]; 10 mg/kg p.o., 2 h.) was 519. For the same compound, the “heart rate at time t” value ([9]; 10 mg/kg p.o., 4 h.) was 519, the “heart rate at time t” value ([9]; 10 mg/kg p.o., 6 h.) was 503 and the “heart rate change (in words)” value ([9]; DHCN 10 mg/kg, THCN 10 mg/kg, on the border of statistical significance) was “an increase is to be observed”. The “heart rate change (in words)” value ([9]; THCN 5 mg/kg) was “does not change”, the “antiarrhythmic effectiveness, chloroform arrythmias (in words)” value [10] was “dosage-dependently inhibited the arrythmias caused by chloroform” and the “inhibition in % of CHCl3 arrhythmia” value ([10]; 10 mg/kg) was 10%. The “inhibition in % of CHCl3 arrhythmia” value ([10]; 15 mg/kg) was 60%, the “inhibition in % of CHCl3 arrhythmia” value ([10]; 25 mg/kg) was 90% and the “sedating action (in words)” value [11] was “sedating”. For the same compound, the “central antiserotoninergic action (in words)” value [12] was “central antiserotoninergic action”, the “heart rate, subsequent value” ([13]; 5 mg/kg p.o.) was 508 ± 7 beats/min and the “heart rate, Δ” value ([13]; 5 mg/kg p.o.) was 6 ± 12 beats/min. For the same compound, the “heart rate, Δ %” value ([13]; 5 mg/kg p.o.) was 1.2 ± 7.1%, the “heart rate, subsequent value” ([13]; 10 mg/kg p.o.) was 519 ± 9 beats/min and the “heart rate, Δ” value ([13]; 10 mg/kg p.o.) was 21 ± 11 beats/min. For the same compound, the “heart rate, Δ %” value ([13]; 10 mg/kg p.o.) was 4.2 ± 3.3%, the “heart rate, subsequent value” ([13]; 18 mg/kg p.o.) was 495 ± 6 beats/min and the “heart rate, Δ” value ([13]; 18 mg/kg p.o.) was 13 ± 12 beats/min. For the same compound, the “heart rate, Δ %” value ([13]; 18 mg/kg p.o.) was 3.3 ± 2.8%, the “heart rate, subsequent value” ([13]; 30 mg/kg p.o.) was 493 ± 10 beats/min and the “heart rate, Δ” value ([13]; 30 mg/kg p.o.) was 22 ± 27 beats/min. For the same compound, the “heart rate, Δ %” value ([13]; 30 mg/kg p.o.) was 4.7 ± 6.6%, the “heart rate, subsequent value” ([13]; 40 mg/kg p.o.) was 472 ± 14 beats/min and the “heart rate, Δ” value ([13]; 40 mg/kg p.o.) was -1 ± 29 beats/min. The “heart rate, Δ %” value ([13]; 40 mg/kg p.o.) was 1.0 ± 6.6% and the “body temperature-lowering action (in words)” value [14] was “body temperature-lowering action”.

With `CC[C@H]1CN2CCc3c([nH]c4ccccc34)[C@@H]2C[C@@H]1C(COC)C(=O)OC` (stereo partly drawn) [Example 9, tetrahydrocorynantheine hydrochloride] the “hygroscopicity (in words)” value [15] was “slightly hygroscopic”.
